Reference: article PMC3411110, “AdpA, key regulator for morphological differentiation regulates bacterial chromosome replication” (Open Biology, 2012)

Assays:
AdpA (AdpAHis6) [1] = molecular target: T1, AdpA (AdpAHis6) (Streptomyces coelicolor, UniProt Q9L062); assay: effect on AdpA-oriC complex formation; settings: inhibits DNA binding; direct ADP binding not measured
DnaA (DnaAHis6) = DnaA (DnaAHis6) (Streptomyces coelicolor, UniProt P27902); assay: SPR of DnaA on immobilised oriC DNA with and without ATP; settings: 3 mM ATP; HBS200 buffer pH 7.4, 10 mM MgOAc; 283-bp oriC fragment; promotes DNA binding; direct ATP binding not measured
AdpA (AdpAHis6) [2] = molecular target: T1, AdpA (AdpAHis6); assay: SPR of AdpA on immobilised oriC DNA; glutaraldehyde cross-linking of AdpA-oriC complexes; settings: 3 mM ATP in SPR, increasing ATP in cross-linking with 100 nM AdpA; HBS200 buffer pH 7.4, 10 mM MgOAc; 283-bp oriC fragment; inhibits DNA binding; direct ATP binding not measured

T1 sequence (Q9L062 entry or part of it): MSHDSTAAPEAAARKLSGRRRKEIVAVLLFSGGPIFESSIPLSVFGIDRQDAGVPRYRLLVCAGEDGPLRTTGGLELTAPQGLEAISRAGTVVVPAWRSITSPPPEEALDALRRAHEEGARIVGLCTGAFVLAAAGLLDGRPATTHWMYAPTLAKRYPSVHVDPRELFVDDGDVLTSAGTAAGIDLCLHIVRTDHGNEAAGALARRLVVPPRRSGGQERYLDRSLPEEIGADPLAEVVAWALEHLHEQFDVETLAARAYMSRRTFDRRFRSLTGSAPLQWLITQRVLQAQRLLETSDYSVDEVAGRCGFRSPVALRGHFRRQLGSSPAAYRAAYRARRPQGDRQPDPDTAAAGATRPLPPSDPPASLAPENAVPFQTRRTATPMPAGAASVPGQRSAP
DnaA (DnaAHis6), sequence (P27902 whole entry, the tested form may be a part): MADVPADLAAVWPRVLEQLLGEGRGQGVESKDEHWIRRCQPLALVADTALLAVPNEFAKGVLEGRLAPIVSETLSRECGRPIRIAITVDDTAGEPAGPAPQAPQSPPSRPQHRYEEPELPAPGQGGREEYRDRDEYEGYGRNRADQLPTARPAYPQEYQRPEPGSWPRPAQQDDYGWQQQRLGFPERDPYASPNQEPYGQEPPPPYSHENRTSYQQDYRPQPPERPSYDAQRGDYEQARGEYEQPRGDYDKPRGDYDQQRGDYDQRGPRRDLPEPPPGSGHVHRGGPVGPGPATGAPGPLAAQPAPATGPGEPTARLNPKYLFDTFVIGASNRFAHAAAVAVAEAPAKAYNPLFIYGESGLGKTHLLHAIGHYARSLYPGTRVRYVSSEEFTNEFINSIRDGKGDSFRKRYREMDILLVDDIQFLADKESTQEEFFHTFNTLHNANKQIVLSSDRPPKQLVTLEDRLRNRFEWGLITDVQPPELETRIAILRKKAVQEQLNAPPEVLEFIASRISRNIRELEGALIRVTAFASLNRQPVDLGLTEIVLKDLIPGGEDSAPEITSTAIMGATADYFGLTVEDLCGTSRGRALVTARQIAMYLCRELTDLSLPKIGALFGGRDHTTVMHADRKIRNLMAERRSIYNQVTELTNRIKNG

| SMILES | effect on AdpA-oriC complex formation (AdpA (AdpAHis6) [1]) | SPR of DnaA on immobilised oriC DNA with and without ATP (DnaA (DnaAHis6)) | SPR of AdpA on immobilised oriC DNA; glutaraldehyde cross-linking of AdpA-oriC c (AdpA (AdpAHis6) [2]) |
| --- | --- | --- | --- |
| Nc1ncnc2c1ncn2[C@@H]1O[C@H](COP(=O)(O)OP(=O)(O)O)[C@@H](O)[C@H]1O [ADP] | a similar effect was also observed in the presence of ADP | – | – |
| Nc1ncnc2c1ncn2[C@@H]1O[C@H](COP(=O)(O)OP(=O)(O)OP(=O)(O)O)[C@@H](O)[C@H]1O [ATP] | – | binds DnaA box(es), particularly weak ones, more efficiently in the presence of ATP | ATP at the same concentration used for DnaA-binding experiments nearly completely abolished binding of AdpA |
